# Measured values as given in patent US20240049719A1, “ANTIMICROBIAL COATING” (HECOSOL GMBH, priority 2017, published 2024).
# Key:
# [1] = test system: E. coli; assay: JIS test (JIS Z 2801 / ISO 22196) on coated Petri dishes, germ reduction of E. coli; format: cell-based
# Description: The reduction factor RL is used to quantify the anti-microbial effectiveness. This reduction factor RL can be represented by the following mathematical relationship: RL=log (A/B). Here, A corresponds to an average value of so-called colony forming units (CFU) per ml on a reference surface without anti-microbial coating. Consequently, B corresponds to an average value of colony forming units (CFU) per ml on a reference surface with an anti-microbial coating according to the present invention. The internationally recognized JIS test (Japanese Industrial Standard Test, JIS Z 2801), which corresponds to ISO standard 22196 in Europe, is used for objective assessment of the germ reducing effect of surfaces. Thereby, Petri dishes coated with the test substance are first wetted with a germ suspension (e.g. […] Here, the experiments can be performed in the dark or under defined lighting conditions (e.g. by means of LED light at 1600 lux). At the end of the incubation, the number of surviving germs is determined and a reduction factor RL is calculated as described above.
# [2] = test system: Staphylococcus aureus; assay: JIS test (JIS Z 2801 / ISO 22196) against Staphylococcus aureus; format: cell-based; conditions: in-vitro JIS test, 1600 lux
# Description: The internationally recognized JIS test (Japanese Industrial Standard Test, JIS Z 2801), which corresponds to ISO standard 22196 in Europe, is used for objective assessment of the germ reducing effect of surfaces.
# Thereby, Petri dishes coated with the test substance are first wetted with a germ suspension (e.g. E. coli or Staphylococcus aureus), covered with a foil and then incubated at 35° C. and 95% humidity.
# Here, the experiments can be performed in the dark or under defined lighting conditions (e.g. by means of LED light at 1600 lux).
# At the end of the incubation, the number of surviving germs is determined and a reduction factor RL is calculated as described above.
# The anti-microbial effectiveness of this coating 10′ against the Staphylococcus aureus germ is shown in FIG. 14a after an incubation period of 24 hours under defined light conditions of about 1600 lux with RL=4.1.
# [3] = test system: daphnia (water flea); conditions: in vivo
# Description: (§1) Therefore, the toxicological behaviour of this coating towards daphnia (water flea) as well as Artemia nauplii (brine shrimp) was investigated. […] As a result, these animals show the same vitality in the coated plates as in the uncoated ones.
# [4] = test system: Artemia nauplii (brine shrimp); conditions: in vivo
# Description: as §1
# [5] = format: physicochemical
# Description: Furthermore, it is shown that the structure of the deposited TiO2*AgNO3 matrix is stable against 1000-times wiping with an anti-septic cloth (ethanol, benzalkonium chloride).
compound,measurement,setting,value
[O]=[W](=[O])=[O] [tungsten oxide],anti-microbial effectiveness (class in words),"[1]; within/after 24 h, 1600 lux",strong
"[O]=[W](=[O])([O-])[O-].[Zn+2] [ZnWO4, zinc tungstate]",anti-microbial effectiveness (class in words),"[1]; within/after 24 h, 1600 lux",strong
"O=[N+]([O-])[O-].[Ag+] [AgNO3, silver nitrate]",reduction factor RL,"[1]; 5 min incubation, in the dark",4.3
same,reproducible RL values (range over repeated JIS tests),[1]; JIS test,4.0-4.3
ammonium heptamolybdate [(NH4)6Mo7O24],reduction factor RL (anti-microbial effectiveness),"[1]; 1 h incubation, 1600 lux",1.4
same,reduction factor RL,"[1]; 24 h incubation, 1600 lux",4.3
same,anti-microbial effectiveness (class in words),"[1]; after 1 h, 1600 lux",significant
"[O]=[Mo](=[O])([O-])[O-].[Zn+2] [ZnMoO4, zinc molybdate]",effectiveness (in words),[2],germ reducing effectiveness
same,reduction factor RL,"[1]; 5 min incubation, in the dark",3.2
"[Na+].[Na+].[O]=[Mo](=[O])([O-])[O-] [Na2MoO4, sodium molybdate]",anti-microbial effectiveness (class in words),"[1]; within/after 24 h, 1600 lux",no anti-microbial effect
"[Ag+].[Ag+].[O]=[Mo](=[O])([O-])[O-] [Ag2MoO4, silver molybdate]",anti-microbial effectiveness (class in words),"[1]; within/after 24 h, 1600 lux",strongly germ-reducing
tungsten molybdate,anti-microbial effectiveness (class in words),"[1]; after 1 h, 1600 lux",no antimicrobial effectiveness
same,anti-microbial effectiveness (class in words),"[1]; within/after 24 h, 1600 lux",no antimicrobial effectiveness
TiO2*AgNO3,vitality of animals in coated vs uncoated plates,[3],same vitality
same,vitality of animals in coated vs uncoated plates,[4],same vitality
same,stability of deposited matrix structure against wiping,[5],stable
